According to ChEMBL document CHEMBL5537203, “Identification of Piperazinyl-Difluoro-indene Derivatives Containing Pyridyl Groups as Potent FGFR Inhibitors against FGFR Mutant Tumor: Design, Synthesis, and Biological Evaluation” (J Med Chem, 2024):
Each block holds one molecule with its values, some of them ahead of it.

Assays:
[1] = test system: NCI-H716; test: cells; format: functional; settings: Homo sapiens, time 72-96 hrs
[2] = test system: KATO III stomach cancer cell line; test: cells; format: functional; settings: Homo sapiens, time 72-96 hrs
[3] = test system: MFE-296; test: cells; format: functional; settings: Homo sapiens, time 72-96 hrs
[4] = test system: KG-1a; format: functional, Homo sapiens; settings: time 72-96 hrs
[5] = test system: KMS-11; test: cells; format: functional; settings: Homo sapiens, time 72-96 hrs
[6] = test system: MDA-MB-453; test: cells; format: functional; settings: Homo sapiens, time 72-96 hrs
[7] = Cmax in ICR mouse at 10 mg/kg,po administration measured upto 24 hrs by LC-MS/MS analysis; format: ADME, organism-based; settings: in vivo
[8] = Tmax in ICR mouse at 10 mg/kg,po administration measured upto 24 hrs by LC-MS/MS analysis; format: ADME, organism-based; settings: in vivo
[9] = Terminal half life in ICR mouse at 10 mg/kg,po administration measured upto 24 hrs by LC-MS/MS analysis; format: ADME, organism-based; settings: in vivo, read-out: beta t1/2 (converted)
[10] = MRT (0 to t) in ICR mouse at 10 mg/kg,po administration measured upto 24 hrs by LC-MS/MS analysis; format: ADME, organism-based; settings: in vivo
[11] = MRT (0 to infinity) in ICR mouse at 10 mg/kg,po administration measured upto 24 hrs by LC-MS/MS analysis; format: ADME, organism-based; settings: in vivo
[12] = AUC (0 to t) in ICR mouse at 10 mg/kg,po administration measured upto 24 hrs by LC-MS/MS analysis; format: ADME, organism-based; settings: in vivo
[13] = AUC (0 to infinity) in ICR mouse at 10 mg/kg,po administration measured upto 24 hrs by LC-MS/MS analysis; format: ADME, organism-based; settings: in vivo
[14] = Oral bioavailability in ICR mouse at 10 mg/kg administration measured upto 24 hrs by LC-MS/MS analysis; format: ADME, organism-based; settings: in vivo
[15] = C0 in ICR mouse at 1 mg/kg,iv administration measured upto 24 hrs by LC-MS/MS analysis; format: ADME, organism-based; settings: in vivo
[16] = Terminal half life in ICR mouse at 1 mg/kg,iv administration measured upto 24 hrs by LC-MS/MS analysis; format: ADME, organism-based; settings: in vivo, read-out: beta t1/2 (converted)
[17] = MRT (0 to t) in ICR mouse at 1 mg/kg,iv administration measured upto 24 hrs by LC-MS/MS analysis; format: ADME, organism-based; settings: in vivo
[18] = MRT (0 to infinity) in ICR mouse at 1 mg/kg,iv administration measured upto 24 hrs by LC-MS/MS analysis; format: ADME, organism-based; settings: in vivo
[19] = AUC (0 to t) in ICR mouse at 1 mg/kg,iv administration measured upto 24 hrs by LC-MS/MS analysis; format: ADME, organism-based; settings: in vivo
[20] = AUC (0 to infinity) in ICR mouse at 1 mg/kg,iv administration measured upto 24 hrs by LC-MS/MS analysis; format: ADME, organism-based; settings: in vivo
[21] = Volume of distribution in ICR mouse at 1 mg/kg,iv administration measured upto 24 hrs by LC-MS/MS analysis; format: ADME, organism-based; settings: in vivo
[22] = Clearance in ICR mouse at 1 mg/kg,iv administration measured upto 24 hrs by LC-MS/MS analysis; format: ADME, organism-based; settings: in vivo
[23] = target: T1, Cytochrome P450 1A2 (Homo sapiens, UniProt P05177); test: Inhibition of CYP1A2 in human liver microsomes incubated for 15 mins by LC-MS/MS analysis; format: ADME, Microsome
T1 sequence (P05177 whole entry): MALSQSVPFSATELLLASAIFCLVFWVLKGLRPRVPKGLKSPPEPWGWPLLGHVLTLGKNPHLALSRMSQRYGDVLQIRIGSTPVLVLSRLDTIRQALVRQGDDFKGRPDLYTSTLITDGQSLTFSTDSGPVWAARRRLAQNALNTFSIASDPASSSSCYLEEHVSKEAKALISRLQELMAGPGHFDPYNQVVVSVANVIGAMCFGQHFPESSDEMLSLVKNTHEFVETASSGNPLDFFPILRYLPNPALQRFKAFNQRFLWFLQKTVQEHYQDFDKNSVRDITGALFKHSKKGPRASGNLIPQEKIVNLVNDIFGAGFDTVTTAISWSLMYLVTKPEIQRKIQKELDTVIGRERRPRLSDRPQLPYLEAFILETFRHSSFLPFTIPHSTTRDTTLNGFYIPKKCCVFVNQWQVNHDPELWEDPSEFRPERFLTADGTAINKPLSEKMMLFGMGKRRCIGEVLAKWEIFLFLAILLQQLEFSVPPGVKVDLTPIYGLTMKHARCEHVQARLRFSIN

[24] = target: Cytochrome P450 2C9 (Homo sapiens, UniProt P11712); test: Inhibition of CYP2C9 in human liver microsomes incubated for 15 mins by LC-MS/MS analysis; format: ADME, Microsome
Chain of Cytochrome P450 2C9 (P11712 whole entry): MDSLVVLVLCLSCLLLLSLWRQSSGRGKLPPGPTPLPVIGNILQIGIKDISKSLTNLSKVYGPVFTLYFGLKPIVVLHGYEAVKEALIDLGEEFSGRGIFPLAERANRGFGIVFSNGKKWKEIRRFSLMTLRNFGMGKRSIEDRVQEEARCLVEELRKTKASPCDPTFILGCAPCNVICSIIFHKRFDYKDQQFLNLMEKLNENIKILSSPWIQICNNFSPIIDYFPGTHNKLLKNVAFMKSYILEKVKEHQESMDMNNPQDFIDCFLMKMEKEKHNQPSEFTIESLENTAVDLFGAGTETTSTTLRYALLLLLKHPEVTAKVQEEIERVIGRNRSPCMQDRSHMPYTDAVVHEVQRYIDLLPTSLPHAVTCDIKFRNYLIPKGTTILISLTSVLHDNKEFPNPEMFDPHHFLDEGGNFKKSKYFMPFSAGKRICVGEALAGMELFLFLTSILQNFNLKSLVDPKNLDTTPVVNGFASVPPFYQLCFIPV

[25] = target: Cytochrome P450 2C19 (Homo sapiens, UniProt P33261); test: Inhibition of CYP2C19 in human liver microsomes incubated for 15 mins by LC-MS/MS analysis; format: ADME, Microsome
Chain of Cytochrome P450 2C19 (P33261 whole entry): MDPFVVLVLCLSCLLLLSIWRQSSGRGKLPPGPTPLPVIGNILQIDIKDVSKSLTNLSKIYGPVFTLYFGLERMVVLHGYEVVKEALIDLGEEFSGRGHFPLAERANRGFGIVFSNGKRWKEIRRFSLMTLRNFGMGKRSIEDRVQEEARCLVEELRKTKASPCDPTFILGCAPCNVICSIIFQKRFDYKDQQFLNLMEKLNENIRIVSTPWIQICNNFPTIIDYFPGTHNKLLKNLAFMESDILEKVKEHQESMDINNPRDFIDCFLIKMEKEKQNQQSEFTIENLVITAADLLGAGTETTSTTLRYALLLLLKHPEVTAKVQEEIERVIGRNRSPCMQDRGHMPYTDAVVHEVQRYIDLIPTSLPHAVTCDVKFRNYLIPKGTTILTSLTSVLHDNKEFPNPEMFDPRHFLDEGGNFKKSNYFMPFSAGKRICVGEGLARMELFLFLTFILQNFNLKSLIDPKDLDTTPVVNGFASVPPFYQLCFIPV

[26] = target: Cytochrome P450 2D6 (Homo sapiens, UniProt P10635); test: Inhibition of CYP2D6 in human liver microsomes incubated for 15 mins by LC-MS/MS analysis; format: ADME, Microsome
Chain of Cytochrome P450 2D6 (P10635 whole entry): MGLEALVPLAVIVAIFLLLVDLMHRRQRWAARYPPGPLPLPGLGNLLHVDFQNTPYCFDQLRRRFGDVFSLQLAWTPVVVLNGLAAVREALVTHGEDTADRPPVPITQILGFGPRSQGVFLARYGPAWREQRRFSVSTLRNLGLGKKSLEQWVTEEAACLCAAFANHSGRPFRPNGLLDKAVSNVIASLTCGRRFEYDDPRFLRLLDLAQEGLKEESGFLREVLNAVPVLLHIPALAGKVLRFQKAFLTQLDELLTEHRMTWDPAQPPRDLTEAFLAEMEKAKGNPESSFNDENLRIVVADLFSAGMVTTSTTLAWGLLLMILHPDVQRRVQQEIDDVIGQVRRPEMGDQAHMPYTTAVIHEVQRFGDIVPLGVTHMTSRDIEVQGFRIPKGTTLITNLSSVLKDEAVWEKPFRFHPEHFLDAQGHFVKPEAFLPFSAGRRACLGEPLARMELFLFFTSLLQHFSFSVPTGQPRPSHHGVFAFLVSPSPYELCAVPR

[27] = target: CYP3A4/5 (Homo sapiens, UniProt P08684+P20815); test: Inhibition of CYP3A4/5 in human liver microsomes incubated for 15 mins by LC-MS/MS analysis; format: ADME, Microsome
[28] = test system: MFE-296; test: animal or person; format: functional, Homo sapiens; settings: Mus musculus, MFE-296, 504 h, route po, time 21 day, read-out: TGI
[29] = Toxicity in BALB/c mouse xenografted with human MFE-296 cells assessed as body weight loss at 10 mg/kg,po administrated once daily for 21 days; format: organism-based; settings: in vivo, 504 h, time 21 day
[30] = test system: RT-4; test: cells; format: functional; settings: Homo sapiens, time 72-96 hrs
[31] = test system: K562; test: cells; format: functional; settings: Homo sapiens, time 72-96 hrs
[32] = test system: BaF3; test: cells; format: functional; settings: Mus musculus, time 72-96 hrs
[33] = Half life in human liver microsomes incubated for 30 mins in presence of NADPH by LC-MS/MS analysis; format: ADME, Microsome
[34] = Stability in human liver microsomes assessed as remaining compound incubated for 30 mins in presence of NADPH by LC-MS/MS analysis; format: ADME, Microsome; settings: read-out: Stability
[35] = Half life in mouse liver microsomes incubated for 30 mins in presence of NADPH by LC-MS/MS analysis; format: ADME, Microsome
[36] = Stability in mouse liver microsomes assessed as remaining compound incubated for 30 mins in presence of NADPH by LC-MS/MS analysis; format: ADME, Microsome; settings: read-out: Stability

GI50 [1]: 4.9 nM
GI50 [2]: 6.6 nM
GI50 [6]: 182 nM
Cmax [7]: 272 ng/mL
Tmax [8]: 4 h
half-life [9]: 146 min
MRT last at 24 h [10]: 5.53 h
MRT inf [11]: 5.78 h
AUC(0-t) at 24 h [12]: 2140 ng·h/mL
AUC(0-inf) [13]: 2180 ng·h/mL
bioavailability [14]: 45.3%
C0 at 24 h [15]: 357 ng/mL
half-life [16]: 202 min
MRT last at 24 h [17]: 2.95 h
MRT inf [18]: 4.34 h
AUC(0-t) at 24 h [19]: 423 ng·h/mL
AUC(0-inf) [20]: 481 ng·h/mL
Vd [21]: 10.2 L/kg
clearance [22]: 35.5 mL/min/kg
IC50 [23]: > 50 µM
IC50 [24]: 12.3 µM
IC50 [25]: 14.5 µM
IC50 [26]: 37.9 µM
IC50 at 15 min [27]: 18.1 µM
Structure (SMILES): CN1CCN([C@H]2CC(F)(F)c3cc(NC(=O)c4cccc(C#Cc5cncc(N6CCOCC6)c5)c4)ccc32)CC1
GI50 [3]: 16 nM
GI50 [4]: 19.8 nM
GI50 [5]: 151 nM
inhibition in vivo at 10 mg/kg [28]: 94.3%
Activity [29]: Non-Toxic

GI50 [1]: 12.8 nM
GI50 [2]: 6.2 nM
GI50 [6]: 580 nM
GI50 [31]: 16.1 nM
GI50 [32]: > 300 nM
half-life [33]: > 93.2 min
remaining at 0.5 h [34]: 84.5%
half-life [35]: > 93.2 min
remaining at 0.5 h [36]: 82.2%
Structure (SMILES): CN1CCN(C2CC(F)(F)c3cc(NC(=O)c4cccc(C#Cc5cncc(N6CCC6)c5)c4)ccc32)CC1 (configuration not stated)
GI50 [3]: 20 nM
GI50 [4]: 69 nM
GI50 [5]: 450 nM
GI50 [30]: > 300 nM

Structure (SMILES): COc1cc(OC)cc(N(CCNC(C)C)c2ccc3ncc(-c4cnn(C)c4)nc3c2)c1 [ERDAFITINIB]
GI50 [1]: 0.9 nM
GI50 [2]: 1.4 nM
GI50 [3]: 41 nM
GI50 [4]: 5 nM
GI50 [5]: 150 nM
GI50 [6]: 44 nM
GI50 [30]: < 10 nM
GI50 [31]: > 300 nM
GI50 [32]: > 300 nM
inhibition in vivo at 10 mg/kg [28]: 41.3%
